# Values quoted from earlier work as cited in patent US20230013142A1, “IODINE COMPOUNDS FOR TREATING RESPIRATORY PATHOGENS” (priority 2020, published 2023).
# Legend:
# [1] = rats, ingestion, 2-year period
# viral haemagglutinin = details: blockade of attachment to host cell receptors
# neuraminidase = details: virucidal mechanism of action
# a variety of viruses = details: on the skin
# [2] = I2 and I- mixed solutions
# parasite's acid vesicles = details: biologically active concentrations
compound,measurement,setting,value
[I-].[K+] [potassium iodide],concentration with long-term decrease in life span,[1],100 ppm
same,concentration with no long-term effects,[1],10 ppm
"povidone iodine (2-Pyrrolidinone, 1-ethenyl-homopolymer) [PVP-I]",effect on viral haemagglutinin,viral haemagglutinin,inhibits
same,effect on neuraminidase,neuraminidase,inhibition
II [iodine],time for successful use against viruses,a variety of viruses,≤ 5 min
same,air level considered immediately dangerous to life or health (IDLH),air level,2 ppm
same,concentration at which reports of discomfort start (NIOSH),inhalation,1.5 ppm
same,concentration at which work is difficult,inhalation,1.5-2 ppm
same,concentration at which short term exposure can be irritating (as low as),"inhalation, short term exposure",0.1 ppm
same,concentration at which decreased virulence of viruses occurred,influenza viruses; in vitro,0.005 ppm
same,concentration for complete inactivation of viruses,influenza viruses; within 1 minute in vitro,0.1 ppm
same,evaporation rate relative to 26 degrees (room temperature),[2]; at 50 degrees Centigrade,over 10 times
same,evaporation rate relative to 26 degrees,[2]; at 80 degrees,over 30 times
CCN(CC)CCCC(C)Nc1ccnc2cc(Cl)ccc12 (centres unmarked) [chloroquine],time to increase of pH of acid vesicles,parasite's acid vesicles,3-5 min
